From patent US20090209426A1, “HERBICIDAL MIXTURE” (priority 2006, published 2009)

Tested on: Digitaria nuda
Assay: Test A: greenhouse postemergence herbicidal effect on Digitaria nuda, visual rating 21 DAT
Assay type: in vivo
Method: Square plastic pots (10 cm on each side) were filled to the rim with a Redi-earth® (Sun Gro Horticulture, Bellevue, Wash.) planting medium containing 55-65% of Canadian sphagnum peat moss, horticultural grade vermiculite, dolomitic limestone and a wetting agent. The soil was tamped firm to a uniform level of 2.5 cm below the rim of the pot. A measured amount of Digitaria nuda seed was scattered on the soil surface of each pot. Seeded pots were covered with approximately 50 mL of the same planting media, tamped, and set out on a greenhouse bench.
The pots were watered thoroughly at once and then as needed with a dilute balanced N—P—K fertilizer solution to provide 218 ppm nitrogen. Artificial lighting was used to supplement natural light to produce a 14-hour photoperiod. Greenhouse temperatures were targeted for 27° C. during the daytime and 21° C. at night. Once the plants reached their appropriate growth stage, the plants were sorted into test units prior to the herbicide application. Digitaria nuda was 5 to 7 cm in height and at the 3-leaf stage at the time of application.
Test chemicals included diuron in the form of KARMEX® Herbicide, which is a 80 weight (wt.) % wettable granule formulation, a mixture of diuron with hexazinone in the form of DUPONT™ K4™ Herbicide, which a granule formulation containing 468 g of diuron and 132 g of hexazinone per kg of formulation, another mixture of diuron with hexazinone in the form of ADVANCE™ Herbicide, which is a wettable granule formulation containing 533 g of diuron and 67 g of hexazinone per kg of formulation, and mesotrione in the form of the commercial product CALLISTO® Herbicide, which is a 40 weight-volume (wt.-vol.) % suspension concentrate containing 400 g of mesotrione per liter of formulation. The application rates for this test were selected based on the recommended use rate of each compound. Application rates of diuron were 1800 g a.i./ha alone from KARMEX® Herbicide, 936 g a.i./ha from DUPONT™ K4™ Herbicide in combination with 264 g a.i./ha of hexazinone, and 1599 g a.i./ha from ADVANCE™ Herbicide in combination with 201 g a.i./ha of hexazinone. […] Furthermore diuron was tested alone and together with hexazinone in combination with mesotrione at these application rates.
The herbicides were diluted in a measured amount of carrier solution to make stock solutions. The carrier solution was water containing 0.25% v/v of non-ionic adjuvant X-77. The stock solutions were all mixed for 10 minutes before aliquots were taken to make individual treatment solutions. Vials were then brought up to final spray volume of 24 mL. The treatments were sprayed at a pressure of 276 kPa through a T-Jet 8002E (Spraying Systems Co., Wheaton, Ill.) flat fan nozzle onto the surface of the plants in a stationary belt sprayer system calibrated to deliver 280 L/Ha. Treatments were replicated three times.
The sprayed plants were placed in the greenhouse for observation; height and leaf stages were then recorded. Plants were maintained by watering as needed and in the same manner in which they were propagated with respect to nutrition, light, and day length. Visual evaluations were made 21 days after treatment (DAT). A numerical rating system was used to describe the visual response of each treatment on a scale of 0 to 100. Numerical ratings were expressed as the percent effect as compared to the control plants, calculated as the mean of the three replicates. Zero (0%) indicates no visual response, and 100% indicates plant death or a moribund state expected to rapidly end in death.
Colby's equation was used to calculate the expected additive herbicidal effect of the mixtures of mesotrione with diuron, alone and in combination with hexazinone. Colby's equation (S. R. Colby, “Calculating Synergistic and Antagonistic Responses of Herbicide Combinations,” Weeds, 15(1), pp 20-22 (1967)) calculates the expected additive effect of herbicidal mixtures, and for two active ingredients is of the form: […]

Compound	Herbicidal Effect Observed (diuron 1800, hexazinone 0, mesotrione 0 g a.i./ha (KARMEX), mean of 3 replicates)	Herbicidal Effect Observed (mesotrione 5 g a.i./ha alone (CALLISTO))	Herbicidal Effect Observed (mesotrione 10 g a.i./ha alone)	Herbicidal Effect Observed (mesotrione 20 g a.i./ha alone)	Herbicidal Effect Observed (mesotrione 30 g a.i./ha alone)	Herbicidal Effect Observed (mesotrione 40 g a.i./ha alone)	Herbicidal Effect Observed (mesotrione 60 g a.i./ha alone)	Herbicidal Effect Observed (mesotrione 90 g a.i./ha alone)
CN(C)C(=O)Nc1ccc(Cl)c(Cl)c1 [Diuron, N′-(3,4-dichlorophenyl)-N,N-dimethylurea]	20%							
CS(=O)(=O)c1ccc(C(=O)C2C(=O)CCCC2=O)c([N+](=O)[O-])c1 [Mesotrione, 2-[4-(methylsulfonyl)-2-nitrobenzoyl]-1,3-cyclohexanedione]		3%	17%	33%	50%	53%	73%	88%
